According to patent publication US20080233210A1, “Co-Biocidal Formulation for Polymeric Materials” (U.S. BORAX INC., priority 2005, published 2008):

Key:
[1] = test system: Aspergillus niger, Penicillium pinophilum, Chetomium globusum, Gliocladium virens, Aurebasidium pullulans; assay: ASTM G-21 fungi resistance of extruded wood/thermoplastic composite boards, unweathered or after QUV accelerated weathering with leaching; type: cell-based; set-up: key to Visual Assessment of Fungal Growth (0-4 scale) / Visual assessment of fungal growth, ZB = 2%, Weathering 0 h: 0: None; Traces of growth (less than 10%); 2: Light growth (10 to 30%); Medium growth (more than 30 to 60%); 4: Heavy growth (60% to complete coverage); conditions: for Visual Assessment of Fungal Growth (0-4 scale): pine WPC without UV stabilizer; for Visual Assessment of Fungal Growth (0-4 scale) / visual assessment, 0-4 fungal growth assessment scale: cobiocide content 0% (borate alone); for visual assessment, 0-4 fungal growth assessment scale: oak WPC, no UV stabilizer package
Procedure: Three 50×50×4 mm specimens were cut from the core of extruded boards, sterilized with a 30 kGy dose of Electron beam radiation and exposed to fungi attack according to ASTM G-21.
After 28 days exposure to the fungi at 98% relative humidity and 28° C., specimens were evaluated using the first scale, from 0-4 as recommended by ASTM G-21 (see Table 3). Results are shown in Table 4 with the summary in Tables 5-7.
Samples prepared according to Example 1 were exposed to accelerated weathering using a QUV accelerated weathering chamber with fluorescent bulb combined with leaching cycle. […] This includes cycles comprised of 8 h UV light (UVA 340 lamps @0.77 W/m^2/nm) @60° C. followed by 4 hours condensation @50° C. Samples were exposed to these conditions for 15 hours and then leached in water. Leaching consisted of 4 hours soaking and 3 hours drip dry (1 hours was required for sample handling). […] After exposure, three 1″×2.5″×⅛″ specimens were cut from the sample. The surface exposed to light and leaching and tested for fungi resistance as described in example 2. Results are presented in Table 3 with summary in Tables 4-6
Samples prepared according to Example 1 were exposed to accelerated weathering using a QUV accelerated weathering chamber with fluorescent bulb combined with leaching cycle. Total exposure time was 1000 hours. This includes cycles comprised of 8 h UV light (UVA 340 lamps @0.77 W/m^2/nm) @60° C. followed by 4 hours condensation @50° C. Samples were exposed to these conditions for 16 hours and then leached in water. Leaching consisted of 4 hours soaking and 3 hours drip dry (1 h was required for sample handling). […] After exposure, three 1″×2.5″×⅛″ specimens were cut from the sample. The surface exposed to light and leaching and tested for fungi resistance as described in Example 2. Results are presented in Table 3 with summary in Tables 4-6.

[2] = test system: Aspergillus niger, Penicillium pinophilum, Chetomium globusum, Gliocladium virens, Aurebasidium pullulans; assay: ASTM G-21 fungi exposure of dried paint coating films; type: cell-based; conditions: coating film, ASTM G-21, 28 days; very high concentrations of Chlortram (0.33%)
Procedure: The coatings were cast on flat polyethylene sheeting and dried into 10 mil thick film before removal from the polyethylene substrate. The dried paint coatings were cut into 2″×2″ square specimens, sterilized with 30 kGy EB radiation and exposed to fungi attack according to ASTM G-21. After 28 days exposure to the fungi at 98% relative humidity and 28° C., the specimens were evaluated using two scales.

OB(O)O [BA]
Visual Assessment of Fungal Growth (0-4 scale) ([1]; BA = 1%, weathering 0 hours): 4 (Heavy growth (60% to complete coverage))
Visual Assessment of Fungal Growth (0-4 scale) ([1]; BA = 2%, weathering 0 hours): 3 (Medium growth (more than 30 to 60%))

N#Cc1c(Cl)c(Cl)c(Cl)c(C#N)c1Cl [Chlortram, 2,4,5,6 tetrachloro-1,3-benzene-dicarbonitrile]
fungal growth observed on coating specimens [2]: No fungal growth

Zinc borate [ZB]
visual assessment, 0-4 fungal growth assessment scale ([1]; ZB = 1%, weathering 0 h): 4 (Heavy growth (60% to complete coverage))
visual assessment, 0-4 fungal growth assessment scale ([1]; ZB = 1%, weathering 500 h): 4 (Heavy growth (60% to complete coverage))
visual assessment, 0-4 fungal growth assessment scale ([1]; ZB = 1%, weathering 1000 h): 3 (Medium growth (more than 30 to 60%))
visual assessment, 0-4 fungal growth assessment scale ([1]; ZB = 1.5%, weathering 0 h): 2 (Light growth (10 to 30%))
visual assessment, 0-4 fungal growth assessment scale ([1]; ZB = 2%, weathering 0 h): 2 (Light growth (10 to 30%))
visual assessment, 0-4 fungal growth assessment scale ([1]; ZB = 2%, weathering 500 h): 3 (Medium growth (more than 30 to 60%))
visual assessment, 0-4 fungal growth assessment scale ([1]; ZB = 2%, weathering 1000 h): 3 (Medium growth (more than 30 to 60%))
Visual assessment of fungal growth, ZB = 1%, Weathering 0 h ([1]; pine WPC with UV stabilizer package, cobiocide content 0%, ZB = 1%, 0 h): 1 (Traces of growth (less than 10%))
Visual assessment of fungal growth, ZB = 1%, Weathering 500 h ([1]; pine WPC with UV stabilizer package, cobiocide content 0%, ZB = 1%, 500 h): 4 (Heavy growth (60% to complete coverage))
Visual assessment of fungal growth, ZB = 1%, Weathering 1000 h ([1]; pine WPC with UV stabilizer package, cobiocide content 0%, ZB = 1%, 1000 h): 4 (Heavy growth (60% to complete coverage))
Visual assessment of fungal growth, ZB = 2%, Weathering 0 h ([1]; pine WPC with UV stabilizer package, cobiocide content 0%, ZB = 2%, 0 h): 0
Visual assessment of fungal growth, ZB = 2%, Weathering 500 h ([1]; pine WPC with UV stabilizer package, cobiocide content 0%, ZB = 2%, 500 h): 3 (Medium growth (more than 30 to 60%))
Visual assessment of fungal growth, ZB = 2%, Weathering 1000 h ([1]; pine WPC with UV stabilizer package, cobiocide content 0%, ZB = 2%, 1000 h): 4 (Heavy growth (60% to complete coverage))
Visual Assessment of Fungal Growth (0-4 scale) ([1]; ZB = 1%, weathering 0 h): 2 (Light growth (10 to 30%))
Visual Assessment of Fungal Growth (0-4 scale) ([1]; ZB = 1%, weathering 500 h): 4 (Heavy growth (60% to complete coverage))
Visual Assessment of Fungal Growth (0-4 scale) ([1]; ZB = 1%, weathering 1000 h): 4 (Heavy growth (60% to complete coverage))
Visual Assessment of Fungal Growth (0-4 scale) ([1]; ZB = 1.5%, weathering 0 hours): 1 (Traces of growth (less than 10%))
Visual Assessment of Fungal Growth (0-4 scale) ([1]; ZB = 2%, weathering 0 h): 0
Visual Assessment of Fungal Growth (0-4 scale) ([1]; ZB = 2%, weathering 500 h): 4 (Heavy growth (60% to complete coverage))
